What was measured:
[1] = system: Rhino Virus (1A, 15 or 39); assay: Potentiation of interferon antiviral activity vs. rhino virus in WISH cells; assay type: cell-based, rhinovirus; conditions: Troxerutin levels below 2.5 mg/ml added with 2-fold dilutions of interferon
Protocol: 3.000 WISH cells were seeded in a microtray and on the following morning, the medium was replaced with 2-fold dilutions (from a 0-30 units/ml stock solution) of HuIFN-α-2b (Intron A) in fresh medium comprising 2% serum. After incubation overnight, the medium was replaced with fresh medium comprising challenge virus and incubated at 33° C., 5% CO2 for 3-5 days and processed further as described in Example 2.
(§1) An experiment similar to Example 3 was carried out in which various, but constant concentrations of either Troxerutin or Veneruton or other relevant derivatives were added together with the 2-fold dilutions of interferon to WISH cells. A typical example from this series of experiments yielded no potentiation of the interferon system, (<1%) at all at Troxerutin levels below 2.5 mg/ml. Troxerutin concentrations higher than 2.5 mg/ml are toxic to the cells.

WISH cells = assay: Toxicity to WISH cells; assay type: cell-based
Protocol: as §1

[2] = system: rhinovirus (1A, 15 or 39); assay: Antiviral activity against rhinovirus in WISH cells measured via the MTS-system; assay type: cell-based; conditions: challenge virus, MTS read-out, Quercetin at levels not toxic to the cells
Protocol: Rhinovirus 1A, rhinovirus 15 and rhinovirus 39 were titrated according to the tetra zolium salt (MTS)-method (Berg et al., 1989; Berg and Owen, 2001a, Hansen et al., 1989). WISH cells were seeded in a micro tray at 3000 cells per well and incubated at 37° C., 5% CO2 overnight; the following morning the medium Was replaced with 10-fold dilutions of either rhinovirus 1A, rhinovirus 15 or rhinovirus 39, respectively, in fresh medium and the trays were incubated 4-5 days at 33° C.; a microscopical examination confirmed that the CytoPathogenic Effect (CPE) was fully developed (CPE equal to 100%). […] To quantitate the CPE in terms of % destruction, MTS (Berg and Owen, 2001a) was added to all cultures and after 3 h incubation at 37° C. (without CO2) the trays were read in a scanner as previuosly described (Berg et al, 1989, Hansen et al., 1989). […]
WISH cells were seeded in wells in a microtray and incubated for 24 h at 34° C., 5% CO2; the medium was replaced with fresh medium comprising 2-fold dilutions of ZnGluconate (diluted 1:10 from a 1% stock dilutions) and incubated further for […] at 33° C., 5% CO2; on the following day challenge virus was added and after 3-5 days at 33° C., 5% , CO2, MTS was added and the microtray was measured in an OD-scanner (Berg et al., 1989; Hansen et al., 1989). […]

C[C@@H]1O[C@@H](OC[C@H]2O[C@@H](Oc3c(-c4ccc(OCCO)c(OCCO)c4)oc4cc(OCCO)cc(O)c4c3=O)[C@H](O)[C@@H](O)[C@@H]2O)[C@H](O)[C@H](O)[C@H]1O [Troxerutin, troxerutin]
potentiation of the interferon system [1]: < 1% | concentrations toxic to the cells (WISH cells): higher than 2.5 mg/ml

O=C([O-])[C@H](O)[C@@H](O)[C@H](O)[C@H](O)CO.O=C([O-])[C@H](O)[C@@H](O)[C@H](O)[C@H](O)CO.[Zn+2] [ZnGluconate]
protection against rhinovirus [2]: < 2%

From patent US8003688B2, “Method of treating symptoms of common cold, allergic rhinitis and infections relating to the respiratory tract” (ImmuPharm Aps, priority 2000, dated 2011)
